Measurements reported in patent publication US5698567A, “Heterocyclic spiro compounds” (Adir Et Compagnie, priority 1995, dated 1997).
Where a name gives a salt, the structure may show the parent alone.

Tests used:
5-lipoxygenase [1] = assay: Inhibition of the synthesis of LTB4 by the peritoneal PMN of rats in vitro (5-lipoxygenase-inhibiting activity); assay type: cell-based, rat; details: for LTB4 % Inhibition: rat peritoneal PMN; for LTB4 % Inhibition / IC50: A23187 10^-6 M; for IC50: rat peritoneal PMN in vitro
From the text: 1.1 Determination of 5-1ipoxygenase-inhibiting activity in vitro (see Goldyne M. E., Burrish G. F., Poubelle P. and Borgeat P., Arachidonic Acid Metabolism among human mononuclear leukocytes. The Journal of Biological Chemistry. Vol. 259, N° 4, p. 8815-8819, 1984, and New Chang C. and Gin Wensu. Stimulation of 5-Lipoxygenase Activity in Polymorphonuclear Leukocytes of Rats by Caseinate Treatment. Biochemical Pharmacology. Vol. 36, N° 8, p. 3033-3036, 1987).
(§1) 5-Lipoxygenase-inhibiting activity was determined on peritoneal leukocytes of rats. Leukocytosis is induced in male OFA rats (IFFA CREDO) weighing 200-250 g by the intraperitoneal injection of 12% sodium caseinate. 18 hours later, the cells are collected by washing the abdominal cavity. The number of cells is adjusted to 2×10^6 /ml.
(§2) The cell suspension is incubated for 10 minutes at 37° C. in the presence of Ca^2+ 5×10^-4 M and Mg^2+ 2×10^-3 M and of various concentrations of the test products. The cells are then stimulated with the calcium ionophore A23187 at a concentration of 10^-6 M for 5 minutes at 37° C. Controls are carded out by incubating the cells with the solvent for the products: 2% DMSO.
After stopping the reaction at +4° C. and centrifugation, the quantity of LTB4 in ng/2×10^6 cells in the supernatants is determined by the E.I.A. method (Statlergenes France). The percentage inhibition is calculated as follows: [formula]
(§3) Metabolism of arachidonic acid by the peritoneal PMN of rats stimulated
(§4) for 5 minutes in vitro by the calcium ionophore (A23187): 10^-6 M.
(§5) Incubation of the products with the cells for 10 minutes prior to
(§6) stimulation with the ionophore.

[2] = test system: synthesis of PGE2 by the peritoneal PMN of rats; assay: Inhibition of the synthesis of PGE2 by the peritoneal PMN of rats in vitro; assay type: cell-based, rat; details: A23187; for IC50: rat peritoneal PMN in vitro; for inhibition at 100 µM: 10^-4 M; for inhibition at 100 µM / inhibition at 10 µM: rat peritoneal PMN; for inhibition at 10 µM: 10^-5 M
Protocol: as §1, §2, §3, §4, §5, §6

5-lipoxygenase [3] = assay: Inhibition of the synthesis of LTB4 in total blood of rats ex vivo (5-lipoxygenase-inhibiting activity); set-up: species or system rat; details: 60 μmol/kg p.o., 1 h; A23187 5 × 10^-5 M, n = 8
Protocol: 1.2 Determination of 5-lipoxygenase-inhibiting activity ex vivo (see Brideau C., Chan C., Charleson S., Denis D. et al. Pharmacology of MK-0591 (3-[1-(4-chlorobenzyl)-3-(t-butyl-thio)-5(quinolin-2-yl-methoxy)-indol-2-yl]-2,2-dimethyl propanoic acid), a Potent, Orally Active Leukotriene Biosynthesis Inhibitor. Can. J. Physiol. Pharmacol. Vol. 70, p. 799-807, 1992).
Inhibition of the biosynthesis of leukotrienes ex vivo following oral administration of the compounds was determined by studying the production of leukotrienes on total blood of rats stimulated in vitro by the calcium ionophore at time 1 hour after oral administration of the compounds.
The various products are administered in suspension in hydroxyethylcellulose: 0.5% H.E.C. at a dose of 60 μmol/kg. Each product is studied on a group of 8 different animals. A control group receives 0.5% H.E.C. only. After intracardial removal of the blood from each rat (male Sprague Dawley rats weighing 150-200 g IFFA CREDO), 1 ml of heparinised blood is incubated with the calcium ionophore A23 187 at a concentration of 5×10^-5 M for 10 minutes at 37° C. The blood is then centrifuged immediately and 100 μl of plasma are extracted in 400 μl of methanol. After centrifugation, the supernatant is evaporated to dryness under N2, the dry residue is taken up in buffer solution, and the LTB4 is assayed by the E.I.A. method (Stallergenes France).
The percentage inhibition is expressed as follows: [formula] 2/Results
Average relative to all controls n = 31
Products administered p.o. 1 hour before removal of blood n = 8
Total blood of rats stimulated for 10 minutes in vitro by the calcium

Compound	LTB4 % Inhibition (5-lipoxygenase [1]; 10^-6 M)	LTB4 % Inhibition (5-lipoxygenase [1]; 10^-7 M)	IC50 (5-lipoxygenase [1])	also measured
O=C1NCC2(CCN(CC(O)c3ccc(OCc4ccc5ccccc5n4)cc3)CC2)O1 (racemic) [Example 5, (R,S)-8-{2-hydroxy-2-[4-(quinol-2-ylmethoxy)phenyl]ethyl}-3,8-diaza-1-oxa-2-oxospiro[4,5]decane]	95%	15%	–	IC50 [2]: > 100 µM
O=C1NCC2(CCN(CC(c3ccccc3)c3ccc(OCc4ccc5ccccc5n4)cc3)CC2)O1 (racemic) [Example 6, (R,S)-8-{2-phenyl-2-[4-(quinol-2-ylmethoxy)phenyl]ethyl}-3,8-diaza-1-oxa-2-oxospiro[4,5]decane]	100%	93%	–	LTB4 % Inhibition (5-lipoxygenase [1]; 4.10^-8 M): 60%; LTB4 % Inhibition (5-lipoxygenase [1]; 10^-8 M): 21%; inhibition at 100 µM [2]: 88%; inhibition at 10 µM [2]: 3%; % Inhibition of the synthesis of LTB4 in total blood of rats ex vivo (5-lipoxygenase [3]): 64%
O=C1NCC2(CCN(CC(c3ccccc3)c3ccc(OCc4ccc5ccccc5c4)cc3)CC2)O1 (racemic) [Example 7, (R,S)-8-{2-[4-(naphth-2-ylmethoxy)phenyl]-2-phenylethyl}-3,8-diaza-1-oxa-2-oxospiro[4,5]decane]	–	36%	> 1 µM	–
O=C1NCC2(CCN(CC(c3ccccc3)c3ccc(OCc4ccc(-c5ccccc5)cn4)cc3)CC2)O1 (racemic) [Example 9, (R,S)-8-{2-phenyl-2-[4-(5-phenylpyrid-2-ylmethoxy)phenyl]ethyl}-3,8-diaza-1-oxa-2-oxospiro[4,5]decane]	–	–	> 0.1 µM	–
c1ccc(C(CN2CCC3(CC2)OCCO3)c2ccc(OCc3ccc4ccccc4n3)cc2)cc1 (racemic) [Example 10, (R,S)-8-{2-phenyl-2-[4-(quinol-2-ylmethoxy)phenyl]ethyl}-8-aza-1,4-dioxaspiro[4,5]decane dihydrochloride]	–	28%	> 0.1 µM	LTB4 % Inhibition (5-lipoxygenase [1]; 10^-5 M): 92%
O=C1NC2(CCN(CC(c3ccccc3)c3ccc(OCc4ccc5ccccc5n4)cc3)CC2)CO1 (racemic) [Example 11, (R,S)-8-{2-phenyl-2-[4-(quinol-2-ylmethoxy)phenyl]ethyl}-1,8-diaza-3-oxa-2-oxospiro[4,5]decane]	–	38%	> 0.1 µM	LTB4 % Inhibition (5-lipoxygenase [1]; 10^-5 M): 76%
O=C1OC2(CCN(CC(c3ccccc3)c3ccc(OCc4ccc5ccccc5n4)cc3)CC2)CN1CCc1ccccc1 (racemic) [Example 12, (R,S)-3-(2-phenylethyl)-8-{2-phenyl-2-[4-(quinol-2-ylmethoxy)phenyl]ethyl}-3,8-diaza-1-oxa-2-oxospiro[4,5]decane]	–	53%	0.1 µM	LTB4 % Inhibition (5-lipoxygenase [1]; 10^-5 M): 98%; inhibition at 100 µM [2]: 86%; inhibition at 10 µM [2]: 92%; IC50 [2]: < 10 µM
CC1NC(=O)OC12CCN(CC(c1ccccc1)c1ccc(OCc3ccc4ccccc4n3)cc1)CC2 (racemic) [Example 13, (R,S), (R,S)-4-methyl-8-{2-phenyl-2-[4-quinol-2-ylmethoxy)phenyl]ethyl}-3,8-diaza-1-oxa-2-oxospiro[4,5]decane]	–	21%	> 0.1 µM	LTB4 % Inhibition (5-lipoxygenase [1]; 10^-5 M): 91%
O=C1NCC2(CCN(C(c3ccccc3)c3ccc(OCc4ccc5ccccc5c4)cc3)CC2)O1 (racemic) [Example 23, (R,S)-8-{[4-(naphth-2-ylmethoxy)phenyl]phenylmethyl}-3,8-diaza-1-2-oxospiro[4,5]decane]	–	9%	> 1 µM	–
Cn1c(=O)ccc2cc(COc3ccc(C(c4ccccc4)N4CCC5(CC4)CNC(=O)O5)cc3)ccc21 (racemic) [Example 25, (R,S)-8-{[4-(1-methyl-2-oxo-1H-quinol-6-ylmethoxy)phenyl]phenylmethyl}-3,8-diaza-1-oxa-2-oxospiro[4,5]decane]	7%	8%	–	–
O=C1NCC2(CCN(C(c3ccccc3)c3ccc(OCc4ccc(-c5ccccc5)cn4)cc3)CC2)O1 (racemic) [Example 26, (R,S)-8-{phenyl-[4-(5-phenylpyrid-2-ylmethoxy)phenyl]methyl}-3,8-diaza-1-oxa-2-oxospiro[4,5]decane]	–	–	> 0.1 µM	–
O=C1NCC2(CCN(CC(Cc3ccccc3)c3ccc(OCc4ccccc4)cc3)CC2)O1 (racemic) [Example 31, (R,S)-8-[2-(4-benzyloxyphenyl)-3-phenylpropyl]-3,8-diaza-1-oxa-2-oxospiro[4,5]decane hydrochloride]	16%	–	> 1 µM	–
O=C1NCC2(CCN(CC(Cc3ccc(Cl)cc3)c3ccc(OCc4ccc(-c5ccccc5)cn4)cc3)CC2)O1 (racemic) [Example 35, (R,S)-8-{3-(4-chlorophenyl)-2-[4-(5-phenylpyrid-2-ylmethoxy)phenyl]propyl}-3,8-diaza-1-oxa-2-oxospiro[4,5]decane]	–	–	> 1 µM	–
O=C1NCC2(CCN(CC(c3ccc(OCc4ccc5ccccc5n4)cc3)C3CCCC3)CC2)O1 (racemic) [Example 36, (R,S)-8-{2-cyclopentyl-2-[4-(quinol-2-ylmethoxy)phenyl]ethyl}-3,8-diaza-1-oxa-2-oxospiro[4,5]decane hydrochloride]	–	–	> 0.1 µM	–
O=C1NCC2(CCN(C(=O)C(c3ccc(OCc4ccc5ccccc5n4)cc3)C3CCCC3)CC2)O1 (racemic) [Example 43, (R,S)-8-{cyclopentyl-[4-(quinol-2-ylmethoxy)phenyl]acetyl}-3,8-diaza-1-oxa-2-oxospiro[4,5]decane hydrochloride]	–	8%	> 0.1 µM	–
O=C1NCC2(CCN(CCc3ccc(OCc4ccc5ccccc5n4)cc3)CC2)O1 [Example 2, 8-{2-[4-(quinol-2-ylmethoxy)phenyl]ethyl}-3,8-diaza-1-2-oxospiro[4,5]decane]	90%	–	–	inhibition at 100 µM [2]: 23%; IC50 [2]: > 100 µM
Cn1c(=O)ccc2cc(COc3ccc(CCN4CCC5(CC4)CNC(=O)O5)cc3)ccc21 [Example 3, 8-{2-[4-[(1-methyl-2-oxo-1H-quinol-6-yl)methoxy]phenyl]ethyl}-3,8-diaza-1-oxa-2-oxospiro[4,5]decane]	–	–	> 100 µM	–
O=C1NCC2(CCN(CC(=O)c3ccc(OCc4ccc5ccccc5n4)cc3)CC2)O1 [Example 28, 8-{2-oxo-2-[4-(quinol-2-ylmethoxy)phenyl]ethyl}-3,8-diaza-1-oxa-2-oxospiro[4,5]decane]	37%	–	> 1 µM	–
O=C1NCC2(CCN(C(=O)Cc3ccc(OCc4ccc5ccccc5n4)cc3)CC2)O1 [Example 29, 8-{[4-(quinol-2-ylmethoxy)phenyl]acetyl}-3,8-diaza-1-oxa-2-oxospiro[4,5]decane]	18%	30%	> 1 µM	–
O=C1NCC2(CCN(C(=O)c3ccc(OCc4ccc5ccccc5n4)cc3)CC2)O1 [Example 30, 8-[4-(quinol-2-ylmethoxy)benzoyl]-3,8-diaza-1-oxa-2-oxospiro[4,5]decane]	14%	–	> 1 µM	–
O=C1NCC2(CCN(CCc3ccccc3)CC2)O1 [fenspiride, 8(2-phenylethyl)-3,8-diaza-1-oxa-2-oxospiro[4,5]decane, reference compound]	–	–	–	activity of reference product tested under the same conditions (Table 1) (5-lipoxygenase [1]; 10^-4 M): inactive
